Literature values, collected in patent US20170119788A1, “METHODS AND COMPOSITIONS FOR DERMATOLOGICAL USE COMPRISING FLUTICASONE AND MOMETASONE AND BIOPOLYMERS” (APEX LABORATORIES PRIVATE LIMITED, priority 2015, published 2017).
Where two headings read alike, the source gives them in different places.

Legend:
[1] = not given; remark: listed apart in the source
[2] = not given; remark: listed apart in the source
[3] = not given; remark: listed apart in the source
[4] = target: T1, human glucocorticoid receptors (Homo sapiens, UniProt P04150); conditions: in vitro, result in words
T1 sequence (P04150 1-777): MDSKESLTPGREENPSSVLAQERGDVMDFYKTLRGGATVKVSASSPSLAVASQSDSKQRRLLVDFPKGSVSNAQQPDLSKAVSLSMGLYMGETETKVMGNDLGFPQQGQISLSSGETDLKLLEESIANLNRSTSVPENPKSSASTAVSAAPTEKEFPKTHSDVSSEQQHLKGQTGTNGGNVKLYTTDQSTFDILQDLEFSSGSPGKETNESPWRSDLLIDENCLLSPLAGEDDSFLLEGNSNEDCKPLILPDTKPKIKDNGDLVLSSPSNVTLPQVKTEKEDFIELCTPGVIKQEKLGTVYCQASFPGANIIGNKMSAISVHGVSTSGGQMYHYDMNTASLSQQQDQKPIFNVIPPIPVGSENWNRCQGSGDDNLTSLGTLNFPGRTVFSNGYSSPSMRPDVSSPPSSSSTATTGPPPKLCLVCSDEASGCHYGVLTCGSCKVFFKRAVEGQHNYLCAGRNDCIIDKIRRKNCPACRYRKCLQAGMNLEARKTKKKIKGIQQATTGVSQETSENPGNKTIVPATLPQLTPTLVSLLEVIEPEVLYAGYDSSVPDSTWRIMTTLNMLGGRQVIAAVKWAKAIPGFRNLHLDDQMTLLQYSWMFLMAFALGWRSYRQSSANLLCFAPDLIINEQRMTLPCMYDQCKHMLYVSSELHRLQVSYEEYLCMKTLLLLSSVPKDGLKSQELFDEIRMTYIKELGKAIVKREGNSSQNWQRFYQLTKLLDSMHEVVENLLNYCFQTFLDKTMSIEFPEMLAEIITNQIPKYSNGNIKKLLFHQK

[5] = tested on: erythrocytes; conditions: result in words
[6] = target: T2, human transcortin (Homo sapiens, UniProt P08185); conditions: result in words
T2 sequence (P08185 23-405): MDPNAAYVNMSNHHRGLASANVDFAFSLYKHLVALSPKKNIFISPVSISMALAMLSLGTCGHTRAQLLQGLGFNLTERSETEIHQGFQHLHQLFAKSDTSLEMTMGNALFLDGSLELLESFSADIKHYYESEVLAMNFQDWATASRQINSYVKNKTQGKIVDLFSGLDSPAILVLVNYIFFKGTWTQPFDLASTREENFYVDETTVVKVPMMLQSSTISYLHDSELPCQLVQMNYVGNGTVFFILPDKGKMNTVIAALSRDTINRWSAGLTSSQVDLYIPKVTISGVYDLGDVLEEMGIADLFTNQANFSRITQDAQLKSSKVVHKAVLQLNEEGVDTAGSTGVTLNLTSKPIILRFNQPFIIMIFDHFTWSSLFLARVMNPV

[7] = tested on: human plasma proteins; conditions: average

Row | bioavailability of an inhaled dose (compared with IV administration) | excretion in the feces (up to 7 days) | excretion in the urine (up to 7 days) | solubility in ethyl alcohol ([1]; ethyl alcohol) | solubility in octanol ([1]; octanol) | solubility in water ([1]; water) | solubility in dimethyl sulfoxide and dimethylformamide ([2]; dimethyl sulfoxide and dimethylformamide) | solubility in methanol and 95% ethanol ([2]; methanol and 95% ethanol) | solubility in water ([2]; water) | apparent volume of distribution, average [3] | terminal half-life, average [3] | affinity and agonist activity at human glucocorticoid receptors [4] | binding to erythrocytes [5] | binding to human transcortin [6] | percentage bound to human plasma proteins [7] | SMILES
1 | less than 1% | 74% | 8% | moderately soluble | slightly soluble | practically insoluble | – | – | – | – | – | – | – | – | – | C[C@@H]1C[C@H]2[C@@H]3CCC4=CC(=O)C=C[C@]4(C)[C@@]3(Cl)[C@@H](O)C[C@]2(C)[C@@]1(OC(=O)c1ccco1)C(=O)CCl [Mometasone Furoate, 9α, 21-dichloro-11β, 17-dihydroxy-16α-methylpregna-1,4-diene-3, 20-dione 17-(2-Furoate)]
2 | – | – | – | – | – | – | freely soluble | slightly soluble | practically insoluble | 4.2 L/kg | 7.2 h | strong affinity and agonist activity | weakly and reversibly bound | not significantly bound | 91% | CCC(=O)O[C@]1(C(=O)SCF)[C@H](C)C[C@H]2[C@@H]3C[C@H](F)C4=CC(=O)C=C[C@]4(C)[C@@]3(F)[C@@H](O)C[C@@]21C [Fluticasone propionate, S-(fluoromethyl)6α,9-difluoro-11β-17-dihydroxy-16α-methyl-3-oxoandrosta-1,4-diene-17β-carbothioate, 17-propionate]
